Source: patent US10294202B2, “Pyrrolidinones as herbicides” (FMC Corporation, priority 2013, dated 2019)

Key:
[1] = system: barnyardgrass; assay: Test A pre-/postemergence herbicide test; format: in vivo, Echinochloa crus-galli
In short: (§1)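 Planted in loam–sand blend; treated the same day preemergence by directed soil spray, while separately grown plants at one- to two-leaf stage got postemergence spray. Compared visually with untreated controls after approximately 10 days; 100 means complete control.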

[2] = system: kochia; assay: Test A pre-/postemergence herbicide test; format: in vivo, Kochia scoparia
In short: as §1

[3] = system: ragweed; assay: Test A pre-/postemergence herbicide test; format: in vivo, Ambrosia elatior
In short: as §1

[4] = system: ryegrass, Italian; assay: Test A pre-/postemergence herbicide test; format: in vivo, Lolium multiflorum
In short: as §1

[5] = system: giant foxtail; assay: Test A pre-/postemergence herbicide test; format: in vivo, Setaria faberii
In short: as §1

[6] = system: pigweed; assay: Test A pre-/postemergence herbicide test; format: in vivo, Amaranthus retroflexus
In short: as §1

[7] = system: wheat; assay: Test A pre-/postemergence herbicide test; format: in vivo, Triticum aestivum; conditions: Postemergence; for Plant response rating, Wheat: 125 g ai/ha
In short: as §1

[8] = system: corn; assay: Test A pre-/postemergence herbicide test; format: in vivo, Zea mays; conditions: Postemergence
In short: as §1

[9] = system: blackgrass; assay: Test A postemergence herbicide test; format: in vivo, Alopecurus myosuroides
In short: (§2)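 Blackgrass and galium grown in pots of loam soil–sand blend, treated postemergence at 2–10 cm height, one- to two-leaf stage. Plants kept in greenhouse ~10 days, then visually rated for injury against untreated controls on a 0–100 scale (0 no effect, 100 complete control).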

[10] = system: galium; assay: Test A postemergence herbicide test; format: in vivo, Galium aparine; conditions: for Plant response rating, Galium: 125 g ai/ha
In short: as §2

[11] = system: rice; assay: Test B flooded paddy test; format: in vivo, Oryza sativa; conditions: Flood, scale of 0 to 100 where 0 is no effect and 100 is complete control
In short: (§3)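 Visual ratings from 0, meaning no effect, up to 100, meaning complete control, were made by comparison with untreated controls 13 to 15 days after treatment. Test compounds went straight into floodwater standing 3 cm over the soil of pots holding 2-leaf seedlings.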

[12] = system: sedge, umbrella; assay: Test B flooded paddy test; format: in vivo, Cyperus difformis; conditions: Flood, scale of 0 to 100 where 0 is no effect and 100 is complete control
In short: as §3

[13] = system: ducksalad; assay: Test B flooded paddy test; format: in vivo, Heteranthera limosa; conditions: Flood, scale of 0 to 100 where 0 is no effect and 100 is complete control
In short: as §3

[14] = system: barnyardgrass; assay: Test B flooded paddy test; format: in vivo, Echinochloa crus-galli; conditions: Flood, scale of 0 to 100 where 0 is no effect and 100 is complete control
In short: as §3

[15] = system: rice; assay: Test C flooded paddy test; format: in vivo, Oryza sativa; conditions: Flood
In short: (§4)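 Plants at the 2-leaf stage in pots flooded to 3 cm were treated by applying compound directly to the paddy water, with depth held throughout. After 13 to 15 days in a greenhouse, response was rated visually against controls on a 0 (no effect) to 100 (complete control) scale.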

[16] = system: sedge, umbrella; assay: Test C flooded paddy test; format: in vivo, Cyperus difformis; conditions: Flood
In short: as §4

[17] = system: ducksalad; assay: Test C flooded paddy test; format: in vivo, Heteranthera limosa; conditions: Flood
In short: as §4

[18] = system: barnyardgrass; assay: Test C flooded paddy test; format: in vivo, Echinochloa crus-galli; conditions: Flood
In short: as §4

[19] = 125 g ai/ha, visual rating, 0 to 100 scale, 0 no effect, 100 complete control, approximately 10 days, preemergence
[20] = Postemergence, 125 g ai/ha, 0 to 100 scale, 0 is no effect, 100 is complete control
[21] = preemergence, 500 g ai/ha, 0 to 100 scale, 0 is no effect and 100 is complete control
[22] = 0 to 100 scale, 0 is no effect, 100 is complete control
[23] = 125 g ai/ha, 0 to 100 scale, 0 is no effect, 100 is complete control
[24] = 125 g ai/ha, scale of 0 to 100 where 0 is no effect and 100 is complete control, 13 to 15 days
[25] = 250 g ai/ha, scale of 0 to 100 where 0 is no effect and 100 is complete control, 13 to 15 days
[26] = Postemergence, 125 g ai/ha, visual rating on 0 to 100 scale (0 no effect, 100 complete control), approx. 10 days
[27] = Postemergence, 500 g ai/ha, 0 to 100 scale (0 no effect, 100 complete control)
[28] = Preemergence, 125 g ai/ha, 0 to 100 scale where 0 is no effect and 100 is complete control
[29] = Preemergence, 500 g ai/ha, visual rating on 0 to 100 scale (0 no effect, 100 complete control)
[30] = visual rating on 0 to 100 scale (0 no effect, 100 complete control), approx. 10 days
[31] = 125 g ai/ha, visual rating on 0 to 100 scale (0 no effect, 100 complete control), approx. 10 days
[32] = 500 g ai/ha, 0 to 100 scale (0 no effect, 100 complete control)

What does the source list for CC(C)(C)c1cccc(C2CNC(=O)C2C(=O)Nc2cccc(F)c2F)c1 (racemic) [Compound 200]?
Plant response rating, Barnyardgrass [1, 19]: 60; Plant response rating, Barnyardgrass [1, 20]: 70; Barnyardgrass plant response rating (0 to 100 scale, 0 is no effect, 100 is complete control) ([1]; Postemergence, 500 g ai/ha): 90; Plant response rating, Barnyardgrass [1, 21]: 90; Plant response rating, Kochia [2, 19]: 0; Plant response rating, Kochia [2, 20]: 0; Kochia plant response rating (0 to 100 scale, 0 is no effect, 100 is complete control) ([2]; Postemergence, 500 g ai/ha): 0; Plant response rating, Kochia [2, 21]: 0; Plant response rating, Ragweed [3, 19]: 0; Plant response rating, Ragweed [3, 20]: 0; Ragweed plant response rating (0 to 100 scale, 0 is no effect, 100 is complete control) ([3]; Postemergence, 500 g ai/ha): 0; Plant response rating, Ragweed [3, 21]: 0; Plant response rating, Ryegrass, Italian [4, 19]: 0; Plant response rating, Ryegrass, Italian [4, 20]: 0; Ryegrass, Italian plant response rating (0 to 100 scale, 0 is no effect, 100 is complete control) ([4]; Postemergence, 500 g ai/ha): 0; Plant response rating, Ryegrass, Italian [4, 21]: 0; Plant response rating, Foxtail, Giant [5, 19]: 30; Plant response rating, Foxtail, Giant [5, 20]: 20; Foxtail, Giant plant response rating (0 to 100 scale, 0 is no effect, 100 is complete control) ([5]; Postemergence, 500 g ai/ha): 40; Plant response rating, Foxtail, Giant [5, 21]: 80; Plant response rating, Pigweed [6, 19]: 0; Plant response rating, Pigweed [6, 20]: 0; Pigweed plant response rating (0 to 100 scale, 0 is no effect, 100 is complete control) ([6]; Postemergence, 500 g ai/ha): 0; Plant response rating, Pigweed [6, 21]: 0; Plant response rating, Wheat [7, 22]: 0; Wheat plant response rating (0 to 100 scale, 0 is no effect, 100 is complete control) ([7]; 500 g ai/ha): 20; Plant response rating, Corn [8, 23]: 0; Corn plant response rating (0 to 100 scale, 0 is no effect, 100 is complete control) ([8]; 500 g ai/ha): 20; Plant response rating, Blackgrass [9, 23]: 0; Blackgrass plant response rating (0 to 100 scale, 0 is no effect, 100 is complete control) ([9]; 500 g ai/ha): 0; Plant response rating, Galium [10, 22]: 0; Galium plant response rating (0 to 100 scale, 0 is no effect, 100 is complete control) ([10]; 500 g ai/ha): 0; Plant response rating, Rice ([11]; 1000 g ai/ha): 15; Plant response rating, Sedge, Umbrella ([12]; 1000 g ai/ha): 0; Plant response rating, Ducksalad ([13]; 1000 g ai/ha): 95; Plant response rating, Barnyardgrass ([14]; 1000 g ai/ha): 85; Plant response rating, Rice [15, 24]: 0; Plant response rating, Rice [15, 25]: 0; Plant response rating, Rice ([15]; 500 g ai/ha, scale 0 to 100): 0; Plant response rating, Rice ([15]; 1000 g ai/ha, scale 0 to 100): 0; Plant response rating, Sedge, Umbrella [16, 24]: 0; Plant response rating, Sedge, Umbrella [16, 25]: 0; Plant response rating, Sedge, Umbrella ([16]; 500 g ai/ha, scale 0 to 100): 0; Plant response rating, Sedge, Umbrella ([16]; 1000 g ai/ha, scale 0 to 100): 0; Plant response rating, Ducksalad [17, 24]: 70; Plant response rating, Ducksalad [17, 25]: 70; Plant response rating, Ducksalad ([17]; 500 g ai/ha, scale 0 to 100): 100; Plant response rating, Ducksalad ([17]; 1000 g ai/ha, scale 0 to 100): 100; Plant response rating, Barnyardgrass [18, 24]: 15; Plant response rating, Barnyardgrass [18, 25]: 25; Plant response rating, Barnyardgrass ([18]; 500 g ai/ha, scale 0 to 100): 40; Plant response rating, Barnyardgrass ([18]; 1000 g ai/ha, scale 0 to 100): 55

Which results are given for O=C1NCC(c2ccc(OC(F)F)cc2)C1C(=O)Nc1ccccc1F (stereo not shown) [Compound 349]?
Plant response rating, Barnyardgrass [1, 26]: 80; Plant response rating, Barnyardgrass [1, 27]: 90; Plant response rating, Barnyardgrass [1, 28]: 70; Barnyardgrass plant response rating [1, 29]: 90; Plant response rating, Kochia [2, 26]: 40; Plant response rating, Kochia [2, 28]: 50; Kochia plant response rating [2, 29]: 80; Plant response rating, Ragweed [3, 26]: 0; Plant response rating, Ragweed [3, 28]: 0; Ragweed plant response rating [3, 29]: 40; Plant response rating, Ryegrass, Italian [4, 26]: 0; Plant response rating, Ryegrass, Italian [4, 28]: 0; Ryegrass, Italian plant response rating [4, 29]: 0; Plant response rating, Foxtail, Giant [5, 26]: 60; Plant response rating, Foxtail, Giant [5, 27]: 90; Plant response rating, Foxtail, Giant [5, 28]: 80; Foxtail, Giant plant response rating [5, 29]: 90; Plant response rating, Pigweed [6, 26]: 0; Plant response rating, Pigweed [6, 28]: 0; Pigweed plant response rating [6, 29]: 40; Plant response rating, Wheat [7, 30]: 0; Plant response rating, Corn [8, 31]: 0; Plant response rating, Corn [8, 32]: 20; Plant response rating, Blackgrass [9, 31]: 20; Plant response rating, Blackgrass [9, 32]: 40; Plant response rating, Galium [10, 30]: 20; Plant response rating, Rice ([11]; 500 g ai/ha): 0; Plant response rating, Sedge, Umbrella ([12]; 500 g ai/ha): 0; Plant response rating, Ducksalad ([13]; 500 g ai/ha): 90; Plant response rating, Barnyardgrass ([14]; 500 g ai/ha): 40
